Source: US4180436A, “Antibacterial compounds and process for production thereof” (Kyowa Hakko Kogyo Co., Ltd., priority 1977, dated 1979)
≈ marks a conversion by molar mass, not a printed value. Entries after “also recorded” stand apart in the source; their conditions may differ.

What was measured:
[1] = test system: Staphylococcus aureus ATCC 6538P; experiment: antibacterial activity by agar dilution method; assay type: cell-based; details: ATCC6538P, pH 7.0
Excerpt: (§1) The antibacterial activity of the compound S551-II-A against various microorganism by agar dilution method (pH 7.0) is shown in Table 2.

[2] = test system: Klebsiella pneumoniae ATCC 10031; experiment: antibacterial activity by agar dilution method; assay type: cell-based; details: ATCC10031, pH 7.0
Excerpt: as §1

[3] = test system: Proteus vulgaris ATCC 6897; experiment: antibacterial activity by agar dilution method; assay type: cell-based; details: ATCC6897, pH 7.0
Excerpt: as §1

[4] = test system: Bacilus subtilis ATCC 10707; experiment: antibacterial activity by agar dilution method; assay type: cell-based; details: pH 7.0
Excerpt: as §1

[5] = test system: Escherichia coli ATCC 3655; experiment: antibacterial activity by agar dilution method; assay type: cell-based; details: ATCC3655, pH 7.0
Excerpt: as §1

Solubilities = assay type: physicochemical; details: solvents named in the value
[6] = test system: Mucor spinescens IAM 6071; experiment: antibacterial activity by disc method; assay type: cell-based; details: IAM6071, pH: no adjustment
Excerpt: (§2) The antibacterial activity of the compound S551-II against various microorganisms by disc method (pH: no adjustment) is shown in the following Table 1.

[7] = test system: Bacillus subtilis PCI 219; experiment: antibacterial activity by disc method; assay type: cell-based; details: PCI219, pH: no adjustment
Excerpt: as §2

[8] = test system: Trycophyton mentagrophytes IAM 5064; experiment: antibacterial activity by disc method; assay type: cell-based; details: pH: no adjustment
Excerpt: as §2

[9] = test system: Penicillium chrysogenum Q 176; experiment: antibacterial activity by disc method; assay type: cell-based; details: Q176, pH: no adjustment
Excerpt: as §2

[10] = test system: Escherichia coli IAM 1268; experiment: antibacterial activity by disc method; assay type: cell-based; details: IAM1268, pH: no adjustment
Excerpt: as §2

[11] = test system: Cladosporium herbarum Link Fr IAM 5059; experiment: antibacterial activity by disc method; assay type: cell-based; details: IAM5059, pH: no adjustment
Excerpt: as §2

gypseum IFO 5948 = experiment: antibacterial activity by disc method; assay type: cell-based; details: pH: no adjustment
Excerpt: as §2

[12] = test system: Staphylococcus aureus FAD 209P; experiment: antibacterial activity by disc method; assay type: cell-based; details: pH: no adjustment
Excerpt: as §2

[13] = test system: Proteus vulgaris HX19 IAM 1025; experiment: antibacterial activity by disc method; assay type: cell-based; details: IAM1025, pH: no adjustment
Excerpt: as §2

[14] = test system: Aspergillus niger IAM 2026; experiment: antibacterial activity by disc method; assay type: cell-based; details: IAM2026, pH: no adjustment
Excerpt: as §2

[15] = test system: Bacillus subtilis IAM 1026; experiment: antibacterial activity by disc method; assay type: cell-based; details: IAM1026, pH: no adjustment
Excerpt: as §2

Irycoderma T-1 ATCC 9645 = experiment: antibacterial activity by disc method; assay type: cell-based
Excerpt: as §2

Bacillus subtilis NA 64 = experiment: antibacterial activity by disc method; assay type: cell-based; details: NA64, pH: no adjustment
Excerpt: as §2

Shigella sonnei E23 = experiment: antibacterial activity by disc method; assay type: cell-based
Excerpt: as §2

[16] = test system: Pseudomonas fluorescens ATCC 27; experiment: antibacterial activity by disc method; assay type: cell-based; details: ATCC27, pH: no adjustment
Excerpt: as §2

[17] = test system: Serratia marcescens IAM 1022; experiment: antibacterial activity by disc method; assay type: cell-based; details: IAM1022, pH: no adjustment
Excerpt: as §2

[18] = test system: Aspergillus oryzae NRRL 692; experiment: antibacterial activity by disc method; assay type: cell-based; details: NRRL692, pH: no adjustment
Excerpt: as §2

Diplococcus pneumoniae = experiment: antibacterial activity by disc method; assay type: cell-based; details: Streptococcus pneumoniae, pH: no adjustment
Excerpt: as §2

[19] = test system: Dusariium moniliforme IAM 5062; experiment: antibacterial activity by disc method; assay type: cell-based; details: pH: no adjustment
Excerpt: as §2

[20] = test system: Saccharomyces cerevisiae IAM 4485; experiment: antibacterial activity by disc method; assay type: cell-based; details: IAM4485, pH: no adjustment
Excerpt: as §2

[21] = test system: Candida albicans IAM 4888; experiment: antibacterial activity by disc method; assay type: cell-based; details: IAM4888, pH: no adjustment
Excerpt: as §2

[22] = test system: Chaetomium globosum ATCC 6025; experiment: antibacterial activity by disc method; assay type: cell-based; details: ATCC6025, pH: no adjustment
Excerpt: as §2

[23] = test system: Alternaria solani IFO 5924; experiment: antibacterial activity by disc method; assay type: cell-based; details: IFO5924, pH: no adjustment
Excerpt: as §2

[24] = test system: Penicillium chrysogenum IAM 7142; experiment: antibacterial activity by disc method; assay type: cell-based; details: IAM7142, pH: no adjustment
Excerpt: as §2

Salmonella enteritidis = experiment: antibacterial activity by disc method; assay type: cell-based; details: Salmonella enterica, pH: no adjustment
Excerpt: as §2

[25] = test system: Myrothecium verrucaria IAM 5063; experiment: antibacterial activity by disc method; assay type: cell-based; details: Albifimbria verrucaria, IAM5063, pH: no adjustment
Excerpt: as §2

[26] = test system: Klebsiella pneumoniae 348; experiment: antibacterial activity by disc method; assay type: cell-based; details: pH: no adjustment
Excerpt: as §2

[27] = test system: Aspergillus niger ATCC 6275; experiment: antibacterial activity by disc method; assay type: cell-based; details: ATCC6275, pH: no adjustment
Excerpt: as §2

[28] = test system: Pseudomonas aeruginosa IAM 1156; experiment: antibacterial activity by disc method; assay type: cell-based; details: IAM1156, pH: no adjustment
Excerpt: as §2

[29] = test system: Escherichia coli ATCC 3655; experiment: antibacterial activity by disc method; assay type: cell-based; details: ATCC3655, pH: no adjustment
Excerpt: as §2

Saccharomyces rouxii M-9 = experiment: antibacterial activity by disc method; assay type: cell-based; details: Zygosaccharomyces rouxii, M9, pH: no adjustment
Excerpt: as §2

Sarcina lutea IAM 1099 = experiment: antibacterial activity by disc method; assay type: cell-based; details: Micrococcus luteus, IAM1099, pH: no adjustment
Excerpt: as §2

With `O=C(/C=C/c1cc[nH]c1)OC1=C(O)CCC1=O` [Compound S551-II-A] the MIC [1] was 200 µg/mL (≈ 858 µM), the MIC [2] was 200 µg/mL (≈ 858 µM) and the MIC [3] was 25 µg/mL (≈ 107 µM). The MIC [4] was 200 µg/mL (≈ 858 µM), the MIC [5] was 500 µg/mL (≈ 2140 µM) and the Solubilities (Solubilities) was “soluble in acetone, dimethylsulfoxide and alkaline solution; also recorded: slightly soluble in methanol; also recorded: insoluble in benzene, chloroform ethylether and hexane”.
Molecule `CC(=O)OC1CC(/C=C/C(=O)OC2=C(O)CCC2=O)=CN1` (centres unmarked) [Compound S551-II] has an MIC [6] of 500 µg/mL (≈ 1700 µM), an MIC [7] of 62.5 µg/mL (≈ 213 µM) and an MIC [8] of 4 µg/mL (≈ 13.6 µM). The MIC [9] was 62.5 µg/mL (≈ 213 µM), the MIC [10] was 1000 µg/mL (≈ 3410 µM) and the MIC [11] was 31.2 µg/mL (≈ 106 µM). It also gave an MIC (gypseum IFO 5948) of 125 µg/mL (≈ 426 µM), an MIC [12] of 62.5 µg/mL (≈ 213 µM) and an MIC [13] greater than 1000 µg/mL. It also gave an MIC [14] of 250 µg/mL (≈ 852 µM), an MIC [15] of 31.2 µg/mL (≈ 106 µM) and an MIC (Irycoderma T-1 ATCC 9645) of 16 µg/mL (≈ 54.6 µM). The MIC (Bacillus subtilis NA 64) was 62.5 µg/mL (≈ 213 µM), the MIC (Shigella sonnei E23) was greater than 100 µg/mL and the MIC [16] was greater than 1000 µg/mL. For the same molecule, the MIC [17] was greater than 1000 µg/mL, the MIC [18] was 62.5 µg/mL (≈ 213 µM) and the MIC (Diplococcus pneumoniae) was 1000 µg/mL (≈ 3410 µM). For the same molecule, the MIC [19] was 125 µg/mL (≈ 426 µM), the MIC [20] was 1000 µg/mL (≈ 3410 µM) and the MIC [21] was greater than 1000 µg/mL. The MIC [22] was 500 µg/mL (≈ 1700 µM), the MIC [23] was 8 µg/mL (≈ 27.3 µM) and the MIC [24] was 125 µg/mL (≈ 426 µM). For the same molecule, the MIC (Salmonella enteritidis) was greater than 1000 µg/mL, the MIC [25] was 125 µg/mL (≈ 426 µM) and the MIC [26] was greater than 1000 µg/mL. For the same molecule, the MIC [27] was 1000 µg/mL (≈ 3410 µM), the MIC [28] was greater than 1000 µg/mL and the MIC [29] was 500 µg/mL (≈ 1700 µM). For the same molecule, the MIC (Saccharomyces rouxii M-9) was 100 µg/mL (≈ 341 µM) and the MIC (Sarcina lutea IAM 1099) was 125 µg/mL (≈ 426 µM).
